From the METLIN SMRT retention time set (Domingo-Almenara et al. 2019)

Assay: gradient 5% acetonitrile 3 min, to 50% in 2 min, to 85% in 15 min, held 3 min, 100 µL/min
Conditions: column: Zorbax Extend-C18 2.1 x 50 mm; eluents: water / acetonitrile, 0.1% formic acid
How it was run: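 A Zorbax Extend-C18 column (2.1 × 50 mm, 1.8 μm) run at 100 μL/min with water and acetonitrile, both containing 0.1% formic acid, separated mixtures of ~100 pure standards. The HPLC was coupled to a quadrupole time-of-flight mass spectrometer operated in positive and negative ionization mode, with dead and dwell volumes of 40 μL and 900 μL. Each retention time was taken from a computationally picked adduct peak that was then manually inspected.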

Structure (SMILES) | RP-LC retention time
O=C(NC1CC1)c1ccc(OCC2CCN(C(=O)Cc3ccc(F)cc3)CC2)cc1 | 787 s
CCCCN(C)C(=O)C1CCC(=O)N(c2cc(OC)c(OC)c(OC)c2)C1c1ccc(OC)cc1 (configuration not stated) | 768 s
Cc1ccc(Nc2nc(-c3ccc(I)cc3)cs2)cc1C | 1120 s
COc1ccc2c(c1)OC1(C)CC2C(S(=O)(=O)c2ccc(C(C)C)cc2)C(=O)N1C (configuration not stated) | 1120 s
COc1ccc(-c2nnc(COc3cccc(NC(=O)c4ccccn4)c3)o2)cc1 | 941 s
Cc1nc2ccc(Cl)cn2c(=O)c1NC(=O)c1cccs1 | 620 s
O=C1[C@H]2CN(Cc3cc(F)c(F)c(F)c3)C[C@H]2C(=O)N1CCc1ccccc1 | 982 s
CCOC(=O)c1c(NCc2ccc(C)cc2)c2ccc(Cl)cc2[nH]c1=O | 922 s
CCCCNC(=O)CC1CCN(C(=O)c2[nH]c(C)cc2C)CC1 | 719 s
CCc1cc(C(=O)Nc2ccc(Cl)cc2)no1 | 997 s
CCn1c(C(=O)N2CCCC(C(=O)N3CCc4ccccc4C3)C2)cc2sccc21 (configuration not stated) | 966 s
CCC(=O)NCc1nc2c(n1C)CN(S(=O)(=O)Cc1ccc(Cl)cc1)CC2 | 539 s
COc1ccccc1NC(=O)Cn1nc2cc(-c3ccccc3)nc(C)n2c1=O | 944 s
CCOC(=O)c1noc2ncnc(Nc3ccc(OC)cc3)c12 | 717 s
COc1ccccc1-c1noc(C2CCCN2C(=O)Nc2cccc(C#N)c2)n1 (configuration not stated) | 823 s
CCCc1cc(N2CCN(C(=O)C3CCN(C(C)=O)CC3)CC2)nc2nnc(CC)n12 | 587 s
Cc1ccc(CNC(=O)C2(C)CCN(S(=O)(=O)c3ccc(C4CCCCC4)cc3)CC2)cc1 | 1270 s
O=C(C1CCC1)N1CCCC(OCc2nc(-c3ccccc3)no2)C1 (configuration not stated) | 791 s
CCCCCN1C(=O)C2(NCCc3c2[nH]c2ccc(C)cc32)c2ccccc21 (configuration not stated) | 792 s

Structure (SMILES) | RP-LC retention time
CCSc1nnnn1-c1ccc(NC(=O)c2ccc3nnsc3c2)cc1 | 838 s
CCOc1ccc(NS(=O)(=O)c2cc(C(=O)N3CCN(c4ccccc4OC)CC3)n[nH]2)cc1 | 846 s
CCN1CCN(C(=O)CN2C(=O)CCCc3cc(S(=O)(=O)N4CCC(C)CC4)ccc32)CC1 | 643 s
O=C(NCc1cccnc1-c1ccc(F)cc1)c1cc(F)ccc1Cl | 700 s
CNCCCNCc1ccc(-c2ccc(F)c(Cl)c2)o1 | 580 s
COc1ccc2c(c1)-c1nc(NC(=O)c3cc(Cl)ccc3OC)sc1CC2 | 1300 s
COc1cccc(CC(=O)Nc2ccc(-c3nc(Cn4cccn4)c(C)o3)cc2)c1 | 848 s
COC(=O)CNC(=O)NCC(=O)N1CCc2ccccc21 | 647 s
CS(=O)(=O)N1CCCCC1C(=O)Nc1nnc(-c2ccco2)o1 (configuration not stated) | 641 s
O=C(NCc1cccc(C(F)(F)F)c1)C1(CCO)CCN(c2ncccn2)C1 (configuration not stated) | 669 s
O=C(NCc1ccc(N2CCCCC2)cc1)c1cccc2c1CCN2C(=O)C1CC1 | 634 s
Cc1ccc(-c2ccnc3c(C(=O)NC(C)c4ccncc4)cnn23)cc1C (configuration not stated) | 668 s
CC1CS(=O)(=O)N(c2ccc(C(=O)NCCc3c[nH]c4ccccc34)c(Cl)c2)C1=O (configuration not stated) | 809 s
Cc1ccc(NC(=O)c2cccc([N+](=O)[O-])c2)c(C)c1 | 830 s
O=C(Cn1nc2c3cc(F)ccc3ncn2c1=O)Nc1ccc(F)c(Cl)c1 | 706 s
CCNc1nc(NC)nc(-n2cnc(SC)n2)n1 | 674 s
COCCN1C(=O)c2ccccc2C(C(=O)Nc2ccc3c(c2)OCO3)C1c1ccc(F)cc1 (configuration not stated) | 875 s
CCOC(=O)CNC(=O)N1CCc2nc(-c3ccccc3)ncc2C1 | 720 s
